Laboratory results published in PubChem BioAssay (NCI).
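A five-concentration, 48-hour dose response in 96-well plates underlies each endpoint, interpolated linearly between surrounding concentrations. At the GI50, growth is halved. TGI: concentration producing complete growth inhibition.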

Legend:
Assay in all cases: growth of human tumour cells (NCI), 48 h
NCI-H226 lung = test system: NCI-H226 lung
OVCAR-8 ovarian = test system: OVCAR-8 ovarian
SR leukemia = test system: SR leukemia
A498 renal = test system: A498 renal
SW-620 colon = test system: SW-620 colon
SF-268 CNS = test system: SF-268 CNS
HOP-92 NSCLC = test system: HOP-92 NSCLC
LOX IMVI melanoma = test system: LOX IMVI melanoma
DU-145 prostate = test system: DU-145 prostate
BT-549 breast = test system: BT-549 breast

SMILES | TGI (NCI-H226 lung) [µM] | TGI (OVCAR-8 ovarian) [µM] | TGI (SR leukemia) [µM] | TGI (A498 renal) [µM] | TGI (SW-620 colon) [µM] | TGI (SF-268 CNS) [µM] | TGI (HOP-92 NSCLC) [µM] | TGI (LOX IMVI melanoma) [µM] | GI50 (NCI-H226 lung) [µM] | GI50 (OVCAR-8 ovarian) [µM] | GI50 (A498 renal) [µM] | GI50 (SW-620 colon) [µM] | GI50 (SF-268 CNS) [µM] | GI50 (HOP-92 NSCLC) [µM] | GI50 (LOX IMVI melanoma) [µM] | GI50 (DU-145 prostate) [µM] | TGI (DU-145 prostate) [µM] | GI50 (BT-549 breast) [µM] | TGI (BT-549 breast) [µM] | GI50 (SR leukemia) [µM]
O=Cc1cc2sc(C=O)cc2s1 | 59.2 | > 100 | > 100 | 34.3 | > 100 | > 100 | > 100 | > 100 |  |  |  |  |  |  |  |  |  |  |  | 
CC1O[C@@H]2CCCCC(=O)[C@]2(C)[C@H]1C (stereo not given in full) | > 100 | > 100 |  |  | > 100 |  | > 100 | > 100 |  |  |  |  |  |  |  |  |  |  |  | 
Cc1cc(C2CC(O)C(CO)O2)c(Br)cc1Br (stereo not given) | > 100 | > 100 |  | > 100 | > 100 | > 100 | > 100 | > 100 | > 100 | > 100 | 36.7 | > 100 | > 100 | > 100 | 80.2 | > 100 | > 100 | > 100 | > 100 | 
COc1ccc(CC2OC3(CCCCC3)CC3CCCCN32)cc1 (stereo not given) | > 100 | > 100 | > 100 |  | > 100 | > 100 | > 100 | > 100 |  |  |  |  |  |  |  |  | > 100 |  | > 100 | 
Cc1cc(NCCCCCCCCNc2cc(C)nc3cc(N(C)C)ccc23)c2ccc(N(C)C)cc2n1 |  | 38.2 | 43.9 | 42.6 | 87.6 | 26.9 | 8.04 | 8.99 |  |  |  |  |  |  |  |  |  |  |  | 
Cc1ccccc1C1SCc2nc3ccccc3n21 (stereo not given) | > 100 | > 100 |  |  |  | > 100 | 49.5 |  |  |  |  |  |  |  |  |  |  |  |  | 
O=C(Nc1c(Cl)cccc1Cl)Oc1cccc2cccnc12 | 21.7 | 50 | 30.4 | 48 | > 100 | > 100 |  |  | 4.57 | 3.08 | 7.99 | 4.23 | 5.46 |  |  | 11.7 | > 100 | 8.85 | 90 | 3.59
C/C(COc1ccccc1)=N\NC(N)=S | > 100 | > 100 | > 100 | > 100 | > 100 | > 100 | > 100 | > 100 |  |  |  |  |  |  |  |  |  |  |  | 
CN1C(=O)CC(CC(=O)C2CCCCC2=O)CC1=O (stereo not given) | > 100 | > 100 | > 100 | > 100 | > 100 | > 100 | > 100 | > 100 |  |  |  |  |  |  |  |  |  |  |  | 
NC1=NN(c2ccccc2)C(=O)C1/C(=N\NC(=O)c1cc2ccccc2cc1O)C(=O)Nc1ccc(Cl)c(Cl)c1 (stereo not given) | > 100 | > 100 | 5.71 | > 100 | > 100 | > 100 | 92 | > 100 |  |  |  |  |  |  |  |  |  |  |  | 
Cc1ccc2c(c1)n([O-])c(C(F)(F)F)c(C(=O)c1ccco1)[n+]2=O | 2.09 | 2.64 |  | 3.21 | 8.15 | 2.48 | 0.445 | 0.93 | 0.755 | 0.684 | 1.21 | 0.966 | 0.42 | 0.0556 | 0.176 | 0.564 | 1.33 | 0.627 | 4.21 | 
CN(N=O)N1C(=O)SCC(c2ccccc2)(c2ccccc2)C1=O | 52.7 | 60.2 | > 100 | > 100 | > 100 | > 100 | > 100 | > 100 |  |  |  |  |  |  |  |  | > 100 |  |  | 
Clc1cc2ns[s+]c2cc1Cl | > 100 | > 100 | > 100 | > 100 | > 100 | > 100 | > 100 | > 100 |  |  |  |  |  |  |  |  |  |  |  | 
Nc1ncnc2c1ncn2Cc1ccc(CCl)cc1 | 35.3 | 31.5 |  | 31.9 | 30.2 | 57.9 | 51.6 | 51.7 | 20.6 | 15.5 | 12.6 | 12.8 | 21.8 | 19 | 23.5 | 19 | 50.7 | 14.3 | 28.7 | 
O=C(Nc1ccn(C2CCC(COC(c3ccccc3)(c3ccccc3)c3ccccc3)O2)c(=O)n1)c1ccccc1 (stereo not given) | 18 | 10.1 | 4.82 |  | 15.2 | 17.4 | 4.74 | 7.02 |  |  |  |  |  |  |  |  | 15.5 |  |  | 
CC1=NN(c2ccccc2)C(=O)C1N=Nc1ccc(Br)cc1C (stereo not given) | > 100 | > 100 |  | > 100 | > 100 | > 100 | > 100 |  |  |  |  |  |  |  |  |  |  |  |  | 
Cc1c2cc[n+](C)cc2c(C)c2c1[nH]c1ccc(OC(C)(C)C)cc12 | > 100 | > 100 | > 100 | > 100 | > 100 | > 100 | > 100 | > 100 |  |  |  |  |  |  |  |  |  |  |  | 
O=C(O)[C@@H](Cc1ccccc1)NS(=O)(=O)c1ccc(-c2ccccc2)cc1 | > 100 | > 100 |  | > 100 | > 100 | > 100 | > 100 | > 100 | > 100 | > 100 | 59.6 | > 100 | > 100 | 24.9 | > 100 | > 100 | > 100 | > 100 | > 100 | 
O=C(NNC(=O)/C(=C/c1cccc([N+](=O)[O-])c1)NC(=O)c1ccccc1)Nc1ccc(Cl)cc1 | 32.2 | 62.1 | 28.1 | 23.4 | 28.5 | 29.6 | 40.4 | 30.2 |  |  |  |  |  |  |  |  |  |  |  | 
C=C1[C@H](O)C[C@@H](C(C)C(O)CC=C(C)C)[C@@H](O)[C@@H]2C(C)=CC[C@@H]12 (stereo not given in full) | > 100 | > 100 | > 100 |  | > 100 | > 100 | > 100 | > 100 | > 100 | > 100 |  | > 100 | > 100 | > 100 | > 100 | > 100 | > 100 | > 100 | > 100 | > 100
